Assay results reported in patent US9227966B2, “Antimicrobial agents” (Rutgers, The State University of New Jersey, priority 2010, dated 2016).

Tested on: methicillin-Sensitive Staphylococcus aureus (MSSA)
Test: Planktonic (free-living) antibacterial assay, broth microdilution MIC vs. MSSA
Assay type: cell-based
Conditions: minimal concentration at which bacterial growth is completely inhibited, 37° C., 24 to 48 hours, OD 600 nm
Experimental: Test C. Planktonic (Free-Living) Antibacterial Assay.
Planktonic antibacterial activity can be determined using a broth microdilution assay in which log-phase bacteria are grown at 37° C. in appropriate medium containing two-fold serial dilutions of a compound to yield a final concentration ranging from […]. For determination of minimal inhibitory concentration (MIC) values, bacterial growth is monitored after 24 to 48 hours by measuring optical density at 600 nm.
The minimal inhibitory concentration against methicillin-Sensitive Staphylococcus aureus (MSSA) for each of the following representative compounds of the invention was determined to be less than 32 μg/ml.

SMILES	MIC
COc1cc2cc3c4cc(-c5ccc(C)cc5)c(OC)cc4cc[n+]3cc2cc1OC.[Cl-] [Example 31]	≤ 32 µg/mL
COc1cc2cc3c4cc(-c5cccc(N(C)C)c5)c(OC)cc4cc[n+]3c(C)c2cc1OC [Example 27]	≤ 32 µg/mL
COc1cc2c[n+]3ccc4c(OC)c(OC)ccc4c3cc2c(-c2ccc(-c3ccccc3)cc2)c1OC.[Cl-] [Example 21]	≤ 32 µg/mL
COc1cc2cc[n+]3cc4c(OC)c(OC)c(OC)cc4cc3c2cc1-c1ccc(-c2ccccc2)cc1.[Cl-] [Example 19]	≤ 32 µg/mL
COc1cc2cc3c4cc(-c5ccc(C)cc5)c(OC)cc4cc[n+]3c(C)c2cc1OC [Example 30]	≤ 32 µg/mL
COc1cc2cc3c4cc(-c5ccccc5)c(OC)cc4cc[n+]3cc2cc1OC.[Cl-] [Example 35]	≤ 32 µg/mL
COc1cc2c(C)[n+]3ccc4c(OC)c(OC)ccc4c3cc2c(-c2ccc(-c3ccccc3)cc2)c1OC [Example 20]	≤ 32 µg/mL
C[n+]1cc2ccccc2cc1-c1cc(-c2ccccc2)cc(-c2ccccc2)c1.[I-] [Example 6]	≤ 32 µg/mL

The remaining lines, values ahead:

MIC	SMILES
≤ 32 µg/mL	COc1cc2cc(-c3cc(-c4ccccc4)cc(-c4ccccc4)c3)[n+](C)c(C)c2cc1OC.[I-] [Example 8]
≤ 32 µg/mL	COc1cc2cc3c4cc(-c5ccc(-c6ccccc6)cc5)c(OC)c(OC)c4cc[n+]3c(C)c2cc1OC [Example 17]
≤ 32 µg/mL	COc1cc2cc(-c3cccc(-c4ccc(-c5ccccc5)cc4)c3)[n+](C)c(C)c2cc1OC.[I-] [Example 16]
≤ 32 µg/mL	C[n+]1cc2ccccc2cc1-c1cccc(-c2ccccc2)c1.[I-] [Example 2]
≤ 32 µg/mL	COc1cc2cc(-c3cccc(-c4ccccc4)c3)[n+](C)c(C)c2cc1OC.[I-] [Example 4]
